The source of these data is patent US20250154161A1, “CRYSTAL FORMS OF THIENOIMIDAZOLE COMPOUND AND PREPARATION METHOD THEREOF” (HANGZHOU SCIWIND BIOSCIENCES CO., LTD., priority 2021, published 2025).

Data set [1] concerns the target T1, GLP-1 receptor (Homo sapiens, UniProt P43220).
T1 construct: host or cells: 'GLP-1 cell' constructed cell strain
Kind of data set: Detection of cell viability in vitro (cAMP detection in GLP-1 cells). It counts as cell-based. Here is the method:
OptiPlate-384, White, PerkinElmer (Cat #6007290); 384 well plate for Echo, Labcyte (Cat #P-05525); EnVision, PerkinElmer; Vi-cell counter, Beckman (Cat # Vi-CELL™ XR Cell Viability Analyzer)
The compound was prepared to a working concentration of […] with DMSO. In this test, the use amount of each sample is 5 μL.
Preparation of cAMP detection reagent: 250 μL cAMP-D2, and 250 μL anti-cAMP cryptate reagent were added to 4 mL lysis buffer, then mixing well gently.
The compound to be tested was diluted 3 times at 10 points, the initial concentration was 30 M; and the dilution was completed by Bravo plateform. […]
• 1) A GLP-1 cell cryopreservation tube was quickly thawed in warm water at 37° C. 2) The cell suspension was transferred to a 15 mL Transfer centrifuge tube, then gently rinsing with 10 mL HBSS. • 3) The centrifuge tube was centrifuged at room temperature and 1000 rpm for 1 min. • 4) The supernatant was discarded. • 5) The cells at the bottom were gently dispersed and washed with 10 mL HBSS, then centrifuging to obtain cell sediment, and resuspending the cells with experimental buffer. • 6) Cell density and viability were measured by Vi-cell counter. • 7) GLP-1 cells were diluted with experimental buffer to a concentration of 2.0*10^5/mL. • 8) 100 nL of diluted cell suspension was transferred into OptiPlate-384 plate. • 9) The cells were incubated at room temperature for 30 min. […]

The nature of data set [2]: Study on DMPK in rats (oral, single administration). Format: in vivo. The note with it: rat, male SD rats, oral 5 mg/kg, plasma. The method, then:
Male SD rats were used as test animals. After single administration, the plasma concentration of the compound was measured, and the pharmacokinetic behavior was evaluated.
Two healthy adult male SD rats were selected as the oral group. In the oral group, the vehicle was 20% PEG400/10% solutol/70% water; after the compound to be tested was mixed with the vehicle, 0.5 mg/mL clear solution was prepared by vortex and ultrasound. After oral administration at 5 mg/kg, the whole blood of rat was collected for a certain period of time to prepare plasma; then the drug concentration was analyzed by LC-MS/MS method, and the pharmacokinetic parameters were calculated by Phoenix WinNonlin software (Pharsight, USA).

A short description of data set [3]: Study on DMPK in cynomolgus monkeys (oral, single administration). It counts as in vivo. The note with it: cynomolgus monkey, male cynomolgus monkeys, oral 20 mg/kg, plasma. The method, then: Male cynomolgus monkeys were used as test animals. After single administration, the plasma concentration of the compound was measured, and the pharmacokinetic behavior was evaluated.
Two healthy male cynomolgus monkeys were selected as a group. In the oral group, the vehicle was 20% HP-β-CD aqueous solution; after the compound to be tested was mixed with the vehicle, 4 mg/mL approximately clear solution was prepared by vortex and ultrasound. After oral administration at 20 mg/kg, the whole blood of cynomolgus monkey was collected for a certain period of time to prepare plasma; then the drug concentration was analyzed by LC-MS/MS method, and the pharmacokinetic parameters were calculated by Phoenix WinNonlin software (Pharsight, USA).

Data set [4] is described as follows: Dynamic vapor sorption (DVS) hygroscopicity study of the crystal forms. It counts as physicochemical. The method, then: The dynamic vapor sorption (DVS) curve is collected on the DVS Intrinsic plus by SMS (surface measurement systems). The relative humidity at 25° C. is corrected by the deliquescence point of lithium chloride (LiCl), magnesium nitrate [Mg(NO3)2] and potassium chloride (KCl).
The test parameters are as follows:
The hygroscopicity evaluation is classified as follows:
The specific results are shown as the DVS spectrums in FIGS. 27-29.

Data set [5] can be described thus: Crystal form change after drying the sample open at room temperature overnight. It counts as physicochemical. Here is the method: About 15 mg of crystal Form A of formula (II-1) compound was weighed to add into a 3 mL vial, then adding 1.0 mL MeOH/MTBE (1:1, v/v), stirring at 50° C. for equilibrating about 1 hour, and then filtering to obtain the supernatant.
About 15 mg of crystal Form A of formula (II-1) compound was weighed to add into a 20 mL vial, then dissolving the solids completely with 0.2-1.0 mL MeOH (filtering out the undissolved sample by 0.45 m PTFE filter to obtain clear solution).

Data set [6] is described as follows: Solid stability of crystal forms under accelerated conditions, XRPD detection. Format: physicochemical. The note with it: for Crystal form: 75% RH, open, XRPD detection.
[7] abbreviates: read-out: F % (oral bioavailability).

T1 sequence (P43220 24-463): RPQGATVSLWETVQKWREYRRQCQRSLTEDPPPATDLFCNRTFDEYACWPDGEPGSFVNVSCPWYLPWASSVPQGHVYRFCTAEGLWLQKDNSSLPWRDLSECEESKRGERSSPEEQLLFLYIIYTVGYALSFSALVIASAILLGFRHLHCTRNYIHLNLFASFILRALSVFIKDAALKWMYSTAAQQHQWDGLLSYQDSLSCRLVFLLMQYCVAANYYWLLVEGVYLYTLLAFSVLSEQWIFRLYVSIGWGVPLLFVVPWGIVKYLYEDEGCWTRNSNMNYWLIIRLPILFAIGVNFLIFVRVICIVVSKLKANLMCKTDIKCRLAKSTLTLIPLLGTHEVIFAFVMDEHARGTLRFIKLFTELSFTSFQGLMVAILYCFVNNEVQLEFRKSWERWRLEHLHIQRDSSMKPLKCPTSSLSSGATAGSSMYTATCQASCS

As to `O=C(O)c1cc2c(nc(CN3CC=C(c4cccc(OCc5ccc(Cl)cc5F)n4)CC3)n2C[C@@H]2CCO2)s1` [compound of formula (I)], the EC50 (as a rule, the concentration needed to bring the measured effect to its halfway point) in data set [1] (GLP-1 target in HEK293 host cell, cAMP detection, read-out: Human-GLP1, EC50) is 0.37 nM. Moreover, in data set [1] (cAMP, GLP-1 cells), the “ability to stimulate GLP-1 receptor” value was “better ability to stimulate GLP-1 receptor”. Moreover, the Cmax (in general, the highest concentration seen after dosing) in data set [2] came to 85.5 nM; in data set [3], 1420 nM. Moreover, the exposure AUC(0-t) – broadly, exposure summed from dosing to a finite time, without extrapolation to infinity – in data set [2] (24-hour oral exposure) is 0.234 µM·h; in data set [3] (24-hour oral exposure) it was 12.8 µM·h. In addition, the bioavailability (usually the share of a dose that reaches the circulation, judged against a reference dose that is usually intravenous) in data set [2] (setting [7]) was found to be 6.6%; in data set [3] (setting [7]) it was 22.1%.

In the case of `O=C(O)c1cc2c(nc(CN3CC=C(c4cccc(OCc5ccc(Cl)cc5F)n4)CC3)n2C[C@@H]2CCO2)s1` [crystal Form A], the “crystal form before and after adsorption and desorption” value in data set [4] is “changes”. Moreover, the hygroscopic weight gain in data set [4] (25° C. and 80% RH) was found to be 2.20%.

For `O=C(O)c1cc2c(nc(CN3CC=C(c4cccc(OCc5ccc(Cl)cc5F)n4)CC3)n2C[C@@H]2CCO2)s1` [crystal Form B], the “crystal form after drying open at room temperature overnight” value in data set [5] was “transformed into crystal Form E”.

On to `O=C(O)c1cc2c(nc(CN3CC=C(c4cccc(OCc5ccc(Cl)cc5F)n4)CC3)n2C[C@@H]2CCO2)s1` [crystal Form E], for which the Crystal form result in data set [6] (40° C., Day 5) was “crystal Form E”; in data set [6] (40° C., Day 15), “crystal Form E”; in data set [6] (40° C., Month 1) it was “crystal Form E”; in data set [6] (40° C., Month 2), “crystal Form E”; in data set [6] (60° C., Day 5) it was “crystal Form E”; in data set [6] (60° C., Day 15) it was “crystal Form E”. The Crystal form result is “crystal Form E” in data set [6] (60° C., Month 1) and “crystal Form E” in data set [6] (60° C., Month 2). For the same compound, the “solid stability (conclusion)” value in data set [6] (fully exposed, 40° C./75% RH and 60° C./75% RH, XRPD compared with day 0) is “good stability”.
